From patent US4201843A, “Process for manufacturing tylosin derivatives” (Sanraku Ocean Co., Ltd., priority 1975, dated 1980)
Converted amounts (≈) assume the structure as drawn.

Tests used:
[1] = test system: Streptococcus pyogenes MH 771; experiment: minimum growth-inhibitory concentration; format: cell-based; details: MH771, read-out: minimum growth-inhibitory concentration (MIC)
Description: (§1) The antimicrobial spectra of new tylosin derivatives of this invention are shown in Table 2 by listing the minimum growth inhibitory concentrations (MIC, mcg/ml). […] The toxicity of these compounds was tested in animals by intravenous administration, and the LD50 values in mice are more than 400 mg/kg with all compounds. In therapeutical experiments with mice manually infected by Staphilococcus aureus SMITH, the ED50 values were less than 50 mg/kg (p.o.) with all said tylosin derivatives.
(broth-dilution method)
(§2) The strains marked * in Table 2 are the drug resistant strains isolated from patients, namely, Staphilococcus aureus MS-9610 which is resistant to penicillin, tetracycline, erythromycin, leucomycin, spiramycin, josamycin and tylosin, Staphilococcus aureus MS-8710 which is resistant to penicillin, tetracycline, erythromycin, leucomycin and tylosin, and Streptococcus pyogenes MH 771 which is resistant to erythromycin, oleandomycin, leucomycin and tylosin.

[2] = basicity of the compounds (alkalinity); format: physicochemical
From the text: (§3) The physicochemical analysis and deterimations included elementary analysis, melting point, specific rotatory power, ultraviolet spectrum, infrared spectrum, magnetic nuclear resonance (NMR), C^13 -NMR, mass spectrum (chemical ionization), the release of organic acids under alkaline conditions (gas chromatographical detection), solubility in solvents, color development reaction, basicity of the compounds, appearance and crystalline form. The molecular weight was obtained as QM^+ (Quasi Molecular ion) by chemically-ionized mass spectra analysis.
(§4) (2) the crystals obtained from the solvents in (13) were used for the tests in (1)-(12), and […]

[3] = test system: drug resistant strains; experiment: antimicrobial activity against drug resistant strains; format: cell-based; details: strains marked * in Table 2
From the text: One of the particular advantages of the said tylosin derivatives over known macrolide antibiotics is their distinct antimicrobial activity against drug resistant bacteria.
as §2

[4] = test system: Sarcina lutea ATCC 9341; experiment: minimum growth-inhibitory concentration; format: cell-based; details: Micrococcus luteus, ATCC9341
Description: as §1

[5] = test system: Mycobacterium smegmatis ATCC 607; experiment: minimum growth-inhibitory concentration; format: cell-based; details: Mycolicibacterium smegmatis, ATCC607
Description: as §1

[6] = test system: Staphylococcus aureus SMITH; experiment: minimum growth-inhibitory concentration; format: cell-based
Description: as §1

[7] = test system: Pseudomonas fluorescens NIHJB 254; experiment: minimum growth-inhibitory concentration; format: cell-based; details: NIHJB254
Description: as §1

[8] = test system: Corynebacterium bovis 1810; experiment: minimum growth-inhibitory concentration; format: cell-based
Description: as §1

[9] = test system: Micrococcus flavus I; experiment: minimum growth-inhibitory concentration; format: cell-based
Description: as §1

[10] = test system: Bacillus megaterium NRRL B-938; experiment: minimum growth-inhibitory concentration; format: cell-based; details: Priestia megaterium, NRRLB938
Description: as §1

[11] = test system: Escherichia coli (National Institute of Health); experiment: minimum growth-inhibitory concentration; format: cell-based
Description: as §1

[12] = test system: Bacillus cereus ATCC 9634; experiment: minimum growth-inhibitory concentration; format: cell-based; details: ATCC9634
Description: as §1

[13] = test system: Bacillus subtilis ATCC 6633; experiment: minimum growth-inhibitory concentration; format: cell-based; details: ATCC6633
Description: as §1

[14] = test system: Staphylococcus aureus FAD209P; experiment: minimum growth-inhibitory concentration; format: cell-based; details: read-out: minimum growth-inhibitory concentration (MIC)
Description: as §1

[15] = test system: Candida tropicalis IAM 4924; experiment: minimum growth-inhibitory concentration; format: cell-based; details: IAM4924
Description: as §1

[16] = test system: Proteus morganii (The Institute for Infectious Diseases); experiment: minimum growth-inhibitory concentration; format: cell-based; details: Morganella morganii
Description: as §1

[17] = test system: Candida albicans IAM 4905; experiment: minimum growth-inhibitory concentration; format: cell-based; details: IAM4905
Description: as §1

[18] = test system: Staphylococcus aureus MS 8710; experiment: minimum growth-inhibitory concentration; format: cell-based; details: MS8710; Staphylococcus aureus MS 8710, drug resistant strain
Description: as §1, §2

[19] = test system: Staphylococcus aureus MS 9610; experiment: minimum growth-inhibitory concentration; format: cell-based; details: MS9610; Staphylococcus aureus MS 9610, drug resistant strain
Description: as §1, §2

[20] = solubility in solvents; format: physicochemical; details: for solubility in lower alcohols, ketones, ethers, esters, benzene and toluene: e.g. ethanol, acetone, ethyl ether, ethyl acetate
From the text: as §3, §4

SMILES | MIC [1] [µg/mL] | alkalinity [2] | MIC [4] [µg/mL] | MIC [5] [µg/mL] | MIC [6] [µg/mL] | MIC [7] [µg/mL] | MIC [8] [µg/mL] | MIC [9] [µg/mL] | MIC [10] [µg/mL] | MIC [11] [µg/mL] | MIC [12] [µg/mL] | MIC [13] [µg/mL] | MIC [14] [µg/mL] | MIC [15] [µg/mL] | MIC [16] [µg/mL] | MIC [17] [µg/mL] | MIC [18] [µg/mL] | MIC [19] [µg/mL] | solubility in acidic water [20] | solubility in alkaline water [20] | other results
CCC1OC(=O)CC(OC(C)=O)C(C)C(OC2OC(C)C(OC3CC(C)(O)C(OC(=O)CC(C)C)C(C)O3)C(N(C)C)C2O)C(CC=O)CC(C)C(=O)C=CC(C)=CC1COC1OC(C)C(O)C(OC)C1OC (centres unmarked) [3-acetyl-4"-isovaleryltylosin] | 3.91 (≈ 3.75 µM) | alkaline compounds | 0.25 (≈ 0.24 µM) | 3.91 (≈ 3.75 µM) | 0.49 (≈ 0.47 µM) | > 250 | 0.5 (≈ 0.48 µM) | 0.25 (≈ 0.24 µM) | 0.49 (≈ 0.47 µM) | 125 (≈ 120 µM) | 1.95 (≈ 1.87 µM) | 0.98 (≈ 0.94 µM) | 0.49 (≈ 0.47 µM) | > 250 | > 250 | > 250 | 15.6 (≈ 15 µM) | 62.5 (≈ 60 µM) | soluble | hardly soluble | antimicrobial activity against a wide range of drug resistant strains [3]: particularly strong antimicrobial activity; solubility in lower alcohols, ketones, ethers, esters, benzene and toluene [20]: soluble; solubility in n-hexane and petroleum ether [20]: hardly soluble; solubility in neutral water [20]: slightly soluble
CCCC(=O)OC1C(C)OC(OC2C(C)OC(OC3C(CC=O)CC(C)C(=O)C=CC(C)=CC(COC4OC(C)C(O)C(OC)C4OC)C(CC)OC(=O)CC(OC(C)=O)C3C)C(O)C2N(C)C)CC1(C)O (centres unmarked) [3-acetyl-4"-n-butyryltylosin] | 15.6 (≈ 15.2 µM) | alkaline compounds | < 0.12 | 1.95 (≈ 1.9 µM) | 0.25 (≈ 0.243 µM) | > 250 | 0.5 (≈ 0.486 µM) | 0.25 (≈ 0.243 µM) | 0.49 (≈ 0.477 µM) | 250 (≈ 243 µM) | 0.98 (≈ 0.953 µM) | 0.49 (≈ 0.477 µM) | 0.25 (≈ 0.243 µM) | > 250 | > 250 | > 250 | 15.6 (≈ 15.2 µM) | 250 (≈ 243 µM) | soluble | hardly soluble | antimicrobial activity against a wide range of drug resistant strains [3]: particularly strong antimicrobial activity; solubility in lower alcohols, ketones, ethers, esters, benzene and toluene [20]: soluble; solubility in n-hexane and petroleum ether [20]: hardly soluble; solubility in neutral water [20]: slightly soluble
CCC1OC(=O)CC(OC(C)=O)C(C)C(OC2OC(C)C(OC3CC(C)(O)C(O)C(C)O3)C(N(C)C)C2O)C(CC=O)CC(C)C(=O)/C=C/C(C)=C/C1COC1OC(C)C(O)C(OC)C1OC (centres unmarked) [3-acetyltylosin] | 125 (≈ 130 µM) | alkaline compounds | < 0.12 | 7.81 (≈ 8.15 µM) | 0.12 (≈ 0.125 µM) | > 250 | 0.25 (≈ 0.261 µM) | < 0.12 | 0.25 (≈ 0.261 µM) | 250 (≈ 261 µM) | 0.49 (≈ 0.511 µM) | 0.49 (≈ 0.511 µM) | 0.25 (≈ 0.261 µM) | > 250 | > 250 | > 250 | 250 (≈ 261 µM) | > 250 | soluble | hardly soluble | solubility in lower alcohols, ketones, ethers, esters, benzene and toluene [20]: soluble; solubility in n-hexane and petroleum ether [20]: hardly soluble; solubility in neutral water [20]: slightly soluble
